Measurements reported in PMC4537502 (Psychopharmacology, 2015).
Like-named read-outs stand apart in the source and are kept apart here.

What was measured:
D2R [1] = conditions: read-out: Kd in rat brain tissue; ref Köhler et al. [1985]; cited from earlier work
sigma-1R [2] = conditions: ref Sahlholm et al. [2013], cited from earlier work; for Ki: ^3H-(+)-pentazocine competition, read-out: high-affinity Ki at sigma-1R
D2R [3] = target: D2R; set-up: method as in Pettersson et al. [2010]; conditions: ref Pettersson et al. [2010]; read-out: high-affinity Ki at D2R; cited from earlier work
striatal D2Rs = system: striatal D2Rs; set-up: method as in Ekesbo et al. ([1999]); conditions: rhesus monkeys, continuous infusion 3 mg/kg/h, ref Ekesbo et al. ([1999]); cited from earlier work
D2R [4] = system: D2R; set-up: method as in Tolboom et al. [2015]; conditions: human subjects, ref Tolboom et al. [2015], cited from earlier work
[5] = target: dopamine D2 receptor (D2R) (Rattus norvegicus, UniProt P61169); assay: in vivo
Protocol: (§1) Because of limited availability of the test drug, the 60 mg/kg dose group was scanned only with ^11C-raclopride.
(§2) After drug administration and about 20 min before each microPET scan, animals were anesthetized with isoflurane (Pharmachemie BV, Haarlem, Netherlands). […] Both tracers were injected as a slow bolus (1 ml of saline-diluted tracer solution infused during a period of 1 min), using a Harvard-style injection pump.
(§3) Two rats were scanned in each scan session. They were positioned on heating mats in a microPET Focus 220 system, in transaxial position above each other with their brains in the field of view. Body temperature of the animals was kept close to normal with electronic temperature controllers. Heart rate and oxygen level of the blood during the scan were monitored using pulse oximeters (PulseSense, Nonin). […] A list mode protocol was used with a 76-min acquisition time.
(§4) Image reconstruction was performed using microPET Manager 2.3.3.6 (Siemens). The PET data were split according to position along the y-axis, so that a separate data set was acquired for each animal. The list mode data of the emission scans were reframed in a dynamic sequence of 6 × 10, 4 × 30, 2 × 60, 1 × 120, 1 × 180, 4 × 300, and 3 × 600 s (with an additional 960-s frame for the rat that was injected first). The data were reconstructed per time frame employing an iterative reconstruction algorithm (OSEM2D with Fourier rebinning, 4 iterations, and 16 subsets). […] Data sets were corrected for decay, random coincidences, scatter, and attenuation.
In ^11C-raclopride scans of the brain, three-dimensional regions of interest (ROIs) were manually drawn over the left and right striatum and cerebellum, using the program ASIPro 6.3.3.0 (Siemens). […] Time-activity curves (TACs) were generated for these regions (Fig. 1). The results are expressed as dimensionless standardized uptake values (PET-SUV), defined as [(tissue activity concentration (MBq/g) × body weight (g) / injected dose (MBq)]. Brain tissue was assumed to have a specific gravity of 1 g/ml.
Plateau values for the striatum-to-cerebellum ratio were derived from this curve fit.

habituated rats = conditions: 15.9 mg/kg, ref Rung et al. [2008], Ponten et al. [2010]; cited from earlier work
[6] = system: 6-hydroxydopamine-hemilesioned rats; conditions: 7.9 mg/kg, ref Ponten et al. [2013]; cited from earlier work
sigma-1R [7] = target: T1, sigma-1R (Rattus norvegicus, UniProt Q9R0C9); assay: microPET with ^11C-SA4503, Logan graphical analysis and Cunningham-Lassen plot (sigma-1R occupancy); type: in vivo; conditions: for sigma-1R occupancy: rat brain, Cunningham-Lassen plot
T1 construct: from tissue; host or cells: brain of living rats (Wistar Unilever), in vivo microPET
Protocol: as §1, §2
From these samples, 25 μl of whole blood was collected and plasma (25 μl) was then obtained by centrifugation of the remaining sample (5 min at 13,000×g). Radioactivity in plasma and whole blood was determined using a calibrated gamma counter (CompuGamma CS1282, LKB-Wallac, Turku, Finland). Results are expressed as standardized uptake values (SUV), defined as [(plasma activity concentration (MBq/g) × body weight (g) / injected dose (MBq)]. Rat plasma was assumed to have a specific gravity of 1 g/ml.
as §3, §4
Logan graphical analysis was used to calculate regional tracer distribution volumes (VT). The starting time of the Logan fit was 20 min. Metabolite-corrected plasma radioactivity data were used as input function, and (uncorrected) whole blood radioactivity served to estimate the contribution of blood to brain radioactivity measured by the PET camera. […] The PMOD software package was used for curve fitting.

D2R [8] = conditions: cited from earlier work
Arc gene expression = conditions: rats, 10 mg/kg, ref Waters et al. [2014]; cited from earlier work
rats = conditions: 15.9 mg/kg, ref Rung et al. [2008], Ponten et al. [2010]; cited from earlier work
[9] = system: dopamine release in striatum; conditions: rats, 1.7 mg/kg, ref Ponten et al. [2010]; cited from earlier work
[10] = rat, 3 and 15 mg/kg pridopidine

T1 sequence (Q9R0C9 whole entry): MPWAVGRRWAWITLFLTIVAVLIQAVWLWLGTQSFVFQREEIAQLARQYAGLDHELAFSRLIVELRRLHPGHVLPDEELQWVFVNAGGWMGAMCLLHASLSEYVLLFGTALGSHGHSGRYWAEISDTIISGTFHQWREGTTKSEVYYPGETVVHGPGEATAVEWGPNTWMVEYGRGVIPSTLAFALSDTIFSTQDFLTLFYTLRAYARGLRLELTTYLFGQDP
Sequence of dopamine D2 receptor (D2R) (P61169 whole entry): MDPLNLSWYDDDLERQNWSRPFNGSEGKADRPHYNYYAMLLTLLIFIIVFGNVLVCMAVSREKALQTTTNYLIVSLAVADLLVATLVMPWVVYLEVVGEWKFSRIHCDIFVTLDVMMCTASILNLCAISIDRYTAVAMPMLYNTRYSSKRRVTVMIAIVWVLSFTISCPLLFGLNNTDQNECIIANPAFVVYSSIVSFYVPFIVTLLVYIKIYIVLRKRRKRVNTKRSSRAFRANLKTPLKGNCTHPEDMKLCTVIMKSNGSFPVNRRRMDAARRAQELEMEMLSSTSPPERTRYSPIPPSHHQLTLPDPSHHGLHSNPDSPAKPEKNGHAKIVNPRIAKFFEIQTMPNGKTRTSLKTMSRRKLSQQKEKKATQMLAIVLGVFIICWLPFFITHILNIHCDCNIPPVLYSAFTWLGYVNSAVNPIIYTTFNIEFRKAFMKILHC

CCN1CCC[C@H]1CNC(=O)c1c(O)c(Cl)cc(Cl)c1OC (racemic) [^11C-raclopride]
Kd (D2R [1]): 1.2 nM

CCCN1CCC[C@@H](c2cccc(S(C)(=O)=O)c2)C1 [(−)-OSU6162]
Ki (sigma-1R [2]): ~360 nM | affinity for sigma-1R relative to D2R (sigma-1R [2]; Pettersson et al. [2010]): about two times higher affinity for sigma-1R than for D2R | Ki (D2R [3]): 760 nM | displacement of ^11C-raclopride (striatal D2Rs): 76% | D2R occupancy (D2R [4]; doses 15 to 90 mg (0.14 to 1.25 mg/kg)): 2 to 33% | level at which the dose-occupancy curve appeared to level off (D2R [4]): 40%

CCCN1CCC(c2cccc(S(C)(=O)=O)c2)CC1 [pridopidine, 4-[3-(methylsulfonyl)phenyl]-1-propylpiperidine]
reduction of ^11C-raclopride binding ([5]; rat striatum, 60 mg/kg pridopidine s.c.): 44–66% | effect on ^11C-raclopride uptake (time-activity curves) ([5]; rat, 3 mg/kg pridopidine): increase tracer uptake in striatum but not in cerebellum | effect on ^11C-raclopride uptake (time-activity curves) ([5]; rat, 15 mg/kg pridopidine): increase tracer uptake in both striatum and cerebellum to a rather minor extent | effect on ^11C-raclopride uptake (time-activity curves) ([5]; rat, 60 mg/kg pridopidine): striking increase of the uptake of ^11C-raclopride in both striatum and cerebellum | changes in ^11C-raclopride binding [5, 10]: No significant changes | receptor occupancy at 60 mg/kg ([5]; rat, sc, read-out: D2R occupancy (SRTM fit)): 44% | Ki (sigma-1R [2]): ~70 nM | Ki (D2R [3]): 7520 nM | effect on locomotor activity in habituated rats (habituated rats): increased locomotor activity in habituated rats | effect on L-DOPA-induced rotational asymmetry [6]: decreased L-DOPA-induced rotational asymmetry in 6-hydroxydopamine-hemilesioned rats | sigma-1R occupancy (sigma-1R [7]; pridopidine 3 mg/kg s.c. 60 min before tracer): 56.7 ± 2.3% | sigma-1R occupancy (sigma-1R [7]; pridopidine 15 mg/kg s.c. 60 min before tracer): 84.5 ± 1.7% | VT of ^11C-SA4503 (Logan graphical analysis) (sigma-1R [7]; rat whole brain and brain regions, 3 and 15 mg/kg pridopidine): dose-dependent reduction in VT for all regions investigated | area under the brain time-activity curve (AUC) of ^11C-SA4503 (sigma-1R [7]; [10]): significantly decreased | receptor occupancy at 3 mg/kg (sigma-1R [7]; rat, sc, read-out: sigma-1R occupancy, rat brain, pridopidine 3 mg/kg s.c. 60 min before tracer, Cunningham-Lassen plot): 57 ± 2% | receptor occupancy at 15 mg/kg (sigma-1R [7]; rat, sc, read-out: sigma-1R occupancy, rat brain, pridopidine 15 mg/kg s.c. 60 min before tracer, Cunningham-Lassen plot): 85 ± 2% | D2R occupancy (D2R [8]; Sprague-Dawley rats, 10 mg/kg, ex vivo radioligand binding, ref Natesan et al. [2006]): 35% | ED50 of D2R occupancy (D2R [8]; Sprague-Dawley rats, ex vivo radioligand binding, ref Natesan et al. [2006]): 18.99 mg/kg | time to maximal D2R occupancy after s.c. injection (D2R [8]; rat, ref Natesan et al. ([2006])): ≤ 1 h | time maximal D2R occupancy is maintained (D2R [8]; rat, s.c., ref Natesan et al. ([2006])): 4 h | effect on Arc gene expression in frontal cortex (Arc gene expression): induced Arc gene expression in frontal cortex | effect on MK-801- and amphetamine-induced hyperlocomotion (rats): decreased MK-801- and amphetamine-induced hyperlocomotion | effect on dopamine release in striatum [9]: increased dopamine release in striatum
